Source: PMC2673050 (Journal of medicinal chemistry, 2009)

Key:
[1] = Cytotoxicity testing; format: cell-based; conditions: human, MCF7 breast cells
[2] = Cytotoxicity testing; format: cell-based; conditions: human, LU lung cancer cells
[3] = molecular target: T1, Human QR2 (Homo sapiens, UniProt P16083); assay: QR2 inhibition assay; format: biochemical; conditions: for Increase in QR2 inhibitory potency relative to compound 1: relative to natural product 1
T1 sequence (P16083 1-231): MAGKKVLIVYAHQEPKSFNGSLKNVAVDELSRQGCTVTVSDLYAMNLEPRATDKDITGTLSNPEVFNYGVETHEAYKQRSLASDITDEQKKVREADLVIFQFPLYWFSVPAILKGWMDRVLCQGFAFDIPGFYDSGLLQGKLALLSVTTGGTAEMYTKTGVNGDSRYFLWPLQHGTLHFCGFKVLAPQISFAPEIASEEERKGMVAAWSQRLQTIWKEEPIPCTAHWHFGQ

[4] = system: four different cell lines; assay: Cytotoxicity, overall statement for four cell lines; format: cell-based
[5] = molecular target: T2, aromatase (CYP19A1) (Homo sapiens, UniProt P11511); assay: Aromatase inhibition assay; format: biochemical
T2 sequence (P11511 1-503): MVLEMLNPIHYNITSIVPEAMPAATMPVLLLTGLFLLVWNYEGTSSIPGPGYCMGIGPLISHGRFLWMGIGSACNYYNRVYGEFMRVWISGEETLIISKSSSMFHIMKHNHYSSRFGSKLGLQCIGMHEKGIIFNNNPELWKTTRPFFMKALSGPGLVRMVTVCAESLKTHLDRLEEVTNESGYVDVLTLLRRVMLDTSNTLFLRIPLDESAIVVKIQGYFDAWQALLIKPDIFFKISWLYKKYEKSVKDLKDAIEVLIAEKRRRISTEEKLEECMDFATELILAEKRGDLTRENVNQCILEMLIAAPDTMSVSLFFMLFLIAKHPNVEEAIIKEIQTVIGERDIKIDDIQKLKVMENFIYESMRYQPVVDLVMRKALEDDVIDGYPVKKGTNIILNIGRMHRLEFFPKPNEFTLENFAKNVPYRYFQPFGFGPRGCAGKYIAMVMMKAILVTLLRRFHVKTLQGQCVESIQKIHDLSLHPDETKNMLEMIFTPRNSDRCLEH

[6] = system: Salmonella typhimurium strain TM677; conditions: S. typhimurium TM677; cited from earlier work
[7] = system: mouse mammary gland organ culture (MMOC); conditions: cited from earlier work

Row | Aromatase inhibitory activity (in words) [5] | SMILES | IC50 at 72 h [1] | IC50 at 72 h [2] | also measured
1 | – | COc1ccc2c(C)cc(=O)n(C)c2c1OC [1h, 7,8-Dimethoxy-1,4-dimethylquinolin-2(1H)-one] | > 85.8 µM | > 85.8 µM | –
2 | – | COc1c(OC)c(OC)c2c(C)cc(=O)[nH]c2c1OC [1q, 5,6,7,8-Tetramethoxy-4-methylquinolin-2(1H)-one] | > 71.7 µM | > 71.7 µM | QR2 inhibitory activity (in words) [3]: completely inactive
3 | – | Cc1cc(=O)n(C)c2c1C(=O)C=CC2=O [compound 12] | – | – | Cytotoxicity (in words) [4]: low degree of cytotoxicity
4 | submicromolar range | COc1ccc(OC)c2c1c(C)cc(=O)n2C [1l, 5,8-Dimethoxy-1,4-dimethylquinolin-2(1H)-one] | > 85.7 µM | > 85.7 µM | Increase in QR2 inhibitory potency relative to compound 1 [3]: 10 fold
5 | – | COc1cc(OC)c2[nH]c(=O)cc(C)c2c1OC [1o, 5,6,8-Trimethoxy-4-methylquinolin-2(1H)-one] | – | – | Cytotoxicity (in words) [4]: low degree of cytotoxicity
6 | – | COc1cc2c(C)cc(=O)[nH]c2c(OC)c1OC [1m, 6,7,8-Trimethoxy-4-methylquinolin-2(1H)-one] | > 80.3 µM | > 80.3 µM | –
7 | – | COc1cccc2c(C)cc(=O)n(C)c12 [1f, 8-Methoxy-1,4-dimethylquinolin-2(1H)-one] | > 98.5 µM | > 98.5 µM | Increase in QR2 inhibitory potency relative to compound 1 [3]: approximately 10 fold
8 | inactive | COc1cc(OC)c2[nH]c(=O)cc(C)c2c1 [1i, 6,8-Dimethoxy-4-methylquinolin-2(1H)-one] | > 91.3 µM | > 91.3 µM | –
9 | – | COc1cc(=O)n(C)c2c3c(ccc12)OCO3 [compound 1, 6-Methoxy-9-methyl-[1,3]dioxolo[4,5-h]quinolin-8(9H)-one] | > 85.8 µM | > 85.8 µM | Inhibition of mutagenicity induced by 7,12-dimethylbenz[a]anthracene (DMBA) [6]: inhibit mutagenicity; Inhibition of formation of DMBA-induced preneoplastic lesions [7]: inhibition of the formation of DMBA-induced preneoplastic lesions
10 | – | COc1cc(OC)c2c(c(C)cc(=O)n2C)c1OC [1p, 5,6,8-Trimethoxy-1,4-dimethylquinolin-2(1H)-one] | > 76 µM | – | Cytotoxicity (in words) [4]: low degree of cytotoxicity
11 | – | Cc1cc(=O)[nH]c2c3c(ccc12)OCO3 [1a, 6-Methyl-[1,3]dioxolo[4,5-h]quinolin-8(9H)-one] | > 98.5 µM | > 98.5 µM | –
12 | submicromolar range | COc1c(OC)c(OC)c2c(c(C)cc(=O)n2C)c1OC [1r, 5,6,7,8-Tetramethoxy-1,4-dimethylquinolin-2(1H)-one] | > 68.2 µM | > 68.2 µM | QR2 inhibitory activity (in words) [3]: completely inactive
13 | not active | COc1cccc2c(C)cc(=O)[nH]c12 [1e, 8-Methoxy-4-methylquinolin-2(1H)-one] | > 106 µM | > 106 µM | –
14 | submicromolar range | COc1cc(OC)c2c(c1)c(C)cc(=O)n2C [1j, 6,8-Dimethoxy-1,4-dimethylquinolin-2(1H)-one] | > 85.8 µM | > 85.8 µM | –
15 | – | COc1cc2c(C)cc(=O)n(C)c2c(OC)c1OC [1n, 6,7,8-Trimethoxy-1,4-dimethylquinolin-2(1H)-one] | > 76 µM | > 76 µM | –
16 | – | COc1ccc2c(C)cc(=O)[nH]c2c1OC [1g, 7,8-Dimethoxy-4-methylquinolin-2(1H)-one] | > 91.3 µM | > 91.3 µM | –
17 | – | COc1ccc(OC)c2c(C)cc(=O)[nH]c12 [1k, 5,8-Dimethoxy-4-methylquinolin-2(1H)-one] | > 91.2 µM | > 91.2 µM | –
18 | – | Cc1cc(=O)n(C)c2c3c(ccc12)OCO3 [1b, 6,9-Dimethyl-[1,3]dioxolo[4,5-h]quinolin-8(9H)-one] | > 92.1 µM | > 92.1 µM | Increase in QR2 inhibitory potency relative to compound 1 [3]: more than 8 fold
19 | inactive | Cc1cc(=O)[nH]c2ccccc12 [1c, 4-Methylquinolin-2(1H)-one] | > 126 µM | > 126 µM | QR2 inhibitory activity (in words) [3]: inactive
20 | inactive | Cc1cc(=O)n(C)c2ccccc12 [1d, 1,4-Dimethylquinolin-2(1H)-one] | > 116 µM | > 116 µM | Increase in QR2 inhibitory potency relative to compound 1 [3]: approximately 3 fold
